The compounds below were run against full-length human His-tagged BTK (Homo sapiens (Human), UniProt Q06187) (assay: BTK Assay (HTRF, Cisbio KinEASE-TK)). Details: 6 nM BTK, 30 uM ATP, 15 min preincubation.
Type: biochemical
Procedure: An HTRF assay (Cisbio KinEASE-TK cat #62TKOPEC) was performed to quantitate the ability of test compounds to inhibit BTK mediated phosphorylation of substrate. Assays were assembled in 384 well plates where 6 nM of full-length human His-tagged BTK (Life Technologies cat # PV3587) and test compound at varying concentrations were preincubated for 15 minutes at 28° C. Then, 1 uM of TK substrate-biotin and 30 uM ATP were added and incubated for an additional 30 minutes at 28° C.

full-length human His-tagged BTK, sequence (Q06187 whole entry): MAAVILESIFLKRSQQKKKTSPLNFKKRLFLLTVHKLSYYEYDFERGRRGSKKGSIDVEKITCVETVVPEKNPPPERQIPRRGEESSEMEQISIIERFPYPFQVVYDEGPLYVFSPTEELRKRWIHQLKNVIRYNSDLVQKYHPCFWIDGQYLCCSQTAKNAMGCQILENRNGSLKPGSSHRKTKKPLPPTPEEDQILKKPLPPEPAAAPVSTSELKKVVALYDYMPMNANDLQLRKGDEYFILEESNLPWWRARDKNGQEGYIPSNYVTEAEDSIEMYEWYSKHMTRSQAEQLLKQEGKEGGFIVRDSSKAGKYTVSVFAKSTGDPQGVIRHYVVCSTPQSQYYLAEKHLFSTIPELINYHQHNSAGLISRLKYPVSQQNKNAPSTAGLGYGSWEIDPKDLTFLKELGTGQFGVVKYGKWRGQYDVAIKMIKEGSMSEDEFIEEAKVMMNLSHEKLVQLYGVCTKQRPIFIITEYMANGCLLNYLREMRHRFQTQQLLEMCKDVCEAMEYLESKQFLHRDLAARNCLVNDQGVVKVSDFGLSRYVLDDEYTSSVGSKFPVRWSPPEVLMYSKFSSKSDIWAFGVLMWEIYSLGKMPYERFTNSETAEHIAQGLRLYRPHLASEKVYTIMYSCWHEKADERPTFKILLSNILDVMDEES

IC50	SMILES
10 nM	C=CC(=O)N1CC2(CC(n3nc(-c4ccc(OC(C)C)c(Cl)c4)c(C(N)=O)c3N)C2)C1 [Example 124]
2 nM	CC#CC(=O)N1CC[C@]2(C1)C[C@H](n1nc(-c3ccc(OC4CC4)cc3)c(C(N)=O)c1N)C2 [Example 157]
61 nM	C=CC(=O)N1CCC[C@@H](n2cc(C(N)=O)c(-c3ccc(Oc4cccc(C#N)c4)cc3)n2)C1 [Example 76]
0.8 nM	C=CC(=O)NC1CC2(C1)CC(n1nc(-c3ccc(Oc4ccccc4)cc3)c(C(N)=O)c1N)C2 (stereo not drawn) [Example 97]
5500 nM	C=CC(=O)N1CCC[C@@H](n2cc(C(N)=O)c(-c3cccc(NS(=O)(=O)c4ccc(C)cc4)c3)n2)C1 [Example 11]
0.8 nM	CN(C)C/C=C/C(=O)N1CC2(CC(n3nc(-c4ccc(Oc5ccccc5)cc4)c(C(N)=O)c3N)C2)C1 [Example 100]
3.5 nM	C=CC(=O)N1CC[C@]2(C1)C[C@@H](n1nc(-c3ccc(Oc4ccccc4)cn3)c(C(N)=O)c1N)C2 [Example 120]
330 nM	C=CC(=O)N1CCC[C@@H](n2cc(C(N)=O)c(-c3ccc(Oc4cccc(S(C)(=O)=O)c4)cc3)n2)C1 [Example 65]
0.93 nM	C=CC(=O)N1CC[C@]2(C1)C[C@H](n1nc(-c3ccc(Oc4ccccc4)cc3)c(C(N)=O)c1N)C2 [Example 80]
0.7 nM	CN(C)C/C=C/C(=O)N1CC[C@]2(C1)C[C@@H](n1nc(-c3ccc(Oc4ccccc4)cc3)c(C(N)=O)c1N)C2 [Example 98]
2.2 nM	CC#CC(=O)N1CC2(CC(n3nc(-c4ccc(OCCC)c(F)c4)c(C(N)=O)c3N)C2)C1 [Example 138]
43 nM	C=CC(=O)N1CCC[C@@H](n2cc(C(N)=O)c(-c3ccc(Oc4ccc(Cl)c(F)c4)cc3)n2)C1 [Example 66]
6.4 nM	C=CC(=O)N1CC[C@]2(C1)C[C@@H](c1nc(-c3ccc(Oc4ccccc4)cc3)c(C(N)=O)s1)C2 [Example 79]
580 nM	C=CC(=O)N1CCC[C@@H](n2cc(C(N)=O)c(-c3ccc4occc4c3)n2)C1 [Example 16]
33 nM	NC(=O)c1cn([C@@H]2CCCN(C(=O)C#CCN3CCOCC3)C2)nc1-c1ccc(Oc2ccccc2)cc1 [Example 93]
64 nM	C=CC(=O)N1CCC(Cn2cc(C(N)=O)c(-c3ccc(Oc4ccccc4)cc3)n2)C1 (stereo not drawn) [Example 42]
10 nM	C=CC(=O)N1CCCC(Cn2cc(C(N)=O)c(-c3ccc(Oc4ccccc4)cc3)n2)C1 (stereo not drawn) [Example 45]
6.6 nM	C=CC(=O)N1CCC(n2cc(C(N)=O)c(-c3ccc(Oc4ccccc4)cc3)n2)CC1 [Example 55]
15 nM	CC#CC(=O)N1CC[C@]2(C1)C[C@@H](n1nc(-c3ccc(OCCC)cc3)c(C(N)=O)c1N)C2 [Example 127]
2.1 nM	CC#CC(=O)N1CCC2(CC1)CC(n1nc(-c3ccc(Oc4ccccc4)cc3)c(C(N)=O)c1N)C2 [Example 83]
300 nM	C=CC(=O)N1CCC[C@@H](n2cc(C(N)=O)c(-c3ccc(Nc4nc5ccccc5o4)cc3)n2)C1 [Example 27]
3.4 nM	C=CC(=O)N1CC[C@]2(C1)C[C@@H](n1nc(-c3ccc(Oc4ccccc4)nc3)c(C(N)=O)c1N)C2 [Example 114]
9.3 nM	C=CC(=O)N1CCC[C@@H](n2cc(C(N)=O)c(-c3ccc(Oc4cccc(F)c4)cc3)n2)C1 [Example 73]
0.87 nM	CC#CC(=O)N1CC2(CC(n3nc(-c4ccc(Oc5ccccc5)cn4)c(C(N)=O)c3N)C2)C1 [Example 110]

IC50	SMILES
37 nM	CC#CC(=O)N1CC2(CC(n3nc(-c4ccc(F)c(C(F)(F)F)c4)c(C(N)=O)c3N)C2)C1 [Example 143]
8.4 nM	C=CC(=O)N1CC2(CC(n3nc(-c4ccc(O)cc4)c(C(N)=O)c3N)C2)C1 [Example 133]
0.9 nM	CC#CC(=O)N1CC[C@]2(C1)C[C@H](n1nc(-c3ccc(OCCC)cc3)c(C(N)=O)c1N)C2 [Example 140]
3.2 nM	C=CC(=O)N1CC2(CC(c3nc(-c4ccc(Oc5ccccc5)cc4)c(C(N)=O)s3)C2)C1 [Example 57]
2.3 nM	C=CC(=O)N1CC[C@]2(C1)C[C@H](n1nc(-c3ccc(OC)cc3)c(C(N)=O)c1N)C2 [Example 153]
26 nM	C=CC(=O)N1CC2(CC(n3nc(-c4ccc(Cl)c(C(F)(F)F)c4)c(C(N)=O)c3N)C2)C1 [Example 135]
13 nM	C=CC(=O)N1CC2(CC(n3nc(-c4ccc(OC(C)C)cc4)c(C(N)=O)c3N)C2)C1 [Example 105]
21 nM	C=CC(=O)N1CC[C@]2(C1)C[C@@H](n1cc(C(N)=O)c(-c3ccc(Oc4ccccc4)cc3)n1)C2 [Example 88]
7.3 nM	C=CC(=O)N1CC[C@]2(C1)C[C@H](n1nc(-c3cccc(OC)c3)c(C(N)=O)c1N)C2 [Example 155]
5.1 nM	C=CC(=O)N1CCC[C@@H](n2cc(C(N)=O)c(-c3ccc(NC(=O)c4cc5ccccc5n4C)c(OC)c3)n2)C1 [Example 25]
150 nM	CC#CC(=O)N1CCC[C@H]1Cn1cc(C(N)=O)c(-c2ccc(Oc3ccccc3)cc2)n1 [Example 32]
16 nM	C=CC(=O)N1CC2(CC(n3nc(-c4ccc(OCCC)c(F)c4)c(C(N)=O)c3N)C2)C1 [Example 139]
780 nM	C=CC(=O)N1CCC[C@@H](n2cc(C(N)=O)c(-c3ccc(NS(=O)(=O)c4cccc(Cl)c4Cl)cc3)n2)C1 [Example 61]
0.6 nM	CC#CC(=O)N1CC[C@]2(C1)C[C@H](n1nc(-c3ccc(OC)cc3)c(C(N)=O)c1N)C2 [Example 154]
11 nM	CC#CC(=O)N1CC[C@]2(C1)C[C@@H](n1nc(-c3ccc(Oc4ccccc4)cn3)c(C(N)=O)c1N)C2 [Example 119]
1.7 nM	C=CC(=O)N1CCC[C@@H](c2nc(-c3ccc(Oc4ccccc4)cc3)c(C(N)=O)s2)C1 [Example 51]
100 nM	CC#CC(=O)N1CC2(CC(n3nc(-c4ccc(F)c(OCC(F)(F)F)c4)c(C(N)=O)c3N)C2)C1 [Example 149]
230 nM	CN(C)C/C=C/C(=O)N1CCC[C@H]1Cn1cc(C(N)=O)c(-c2ccc(Oc3ccccc3)cc2)n1 [Example 36]
38 nM	C=CC(=O)N1CCC[C@@H](n2cc(C(N)=O)c(-c3ccc(Oc4ccc(OC)cc4)cc3)n2)C1 [Example 67]
1600 nM	C=CC(=O)N1CCC[C@@H](n2cc(C(N)=O)c(-c3ccc(OCCOC)cc3)n2)C1 [Example 95]
21 nM	C=CC(=O)NCCc1nc(-c2ccc(Oc3ccccc3)cc2)c(C(N)=O)s1 [Example 34]
1 nM	C=CC(=O)NCCn1nc(-c2ccc(Oc3ccccc3)cc2)c(C(N)=O)c1N [Example 44]
7.5 nM	C=CC(=O)N1CCC2(CC(n3nc(-c4ccc(OCCC)cc4)c(C(N)=O)c3N)C2)C1 (single isomer, unassigned) [Example 125]
8200 nM	C=CC(=O)N1CCC[C@@H](n2cc(C(N)=O)c(-c3ccc(C(=O)N4CCCCC4)cc3)n2)C1 [Example 94]

IC50	SMILES
180 nM	CC#CC(=O)N1CCC(Cn2cc(C(N)=O)c(-c3ccc(Oc4ccccc4)cc3)n2)CC1 [Example 49]
14 nM	C=CC(=O)N1CCC[C@@H](n2cc(C(N)=O)c(-c3ccc(Oc4ccc(C)cc4)cc3)n2)C1 [Example 71]
120 nM	C=CC(=O)N1CC2(CC(n3nc(-c4ccc(OC5CCOC5)cc4)c(C(N)=O)c3N)C2)C1 (stereo not drawn) [Example 134]
3.2 nM	NC(=O)c1c(-c2ccc(Oc3ccccc3)cc2)nn([C@H]2C[C@]3(CCN(C(=O)/C=C/CN4CCOCC4)C3)C2)c1N [Example 99]
4.8 nM	C=CC(=O)N1CCC[C@@H](n2cc(C(N)=O)c(-c3ccc(Oc4ccccc4F)cc3)n2)C1 [Example 96]
30 nM	C=CC(=O)N1CCC[C@@H](n2cc(C(N)=O)c(-c3ccc(Oc4ccc(Cl)c(Cl)c4)c(OC)c3)n2)C1 [Example 20]
72 nM	C=CC(=O)N1CC2(CC(n3nc(-c4ccc(F)c(C(F)(F)F)c4)c(C(N)=O)c3N)C2)C1 [Example 144]
9.4 nM	C=CC(=O)N1CCC[C@@H](n2cc(C(N)=O)c(-c3ccc(Oc4ccccc4)c(Cl)c3)n2)C1 [Example 24]
6.4 nM	C=CC(=O)N1CC[C@]2(C1)C[C@H](n1nc(-c3ccc(C(F)(F)F)cc3)c(C(N)=O)c1N)C2 [Example 130]
22 nM	C=CC(=O)N1CCC[C@@H](n2cc(C(N)=O)c(-c3ccc(NC(=O)c4ccc(C(F)(F)F)cc4F)c(OC)c3)n2)C1 [Example 26]
6600 nM	C=CC(=O)N1CCC[C@@H](n2cc(C(N)=O)c(-c3ccc(Oc4ccc(C#N)cc4)cc3)n2)C1 [Example 75]
810 nM	C=CC(=O)N1CCC[C@@H](n2cc(C(N)=O)c(-c3cccc(OCc4ccccc4)c3)n2)C1 [Example 3]
8.9 nM	CC#CC(=O)N1CCC[C@@H](c2nc(-c3ccc(Oc4ccccc4)cc3)c(C(N)=O)[nH]2)C1 [Example 59]
290 nM	C=CC(=O)NCCn1cc(C(N)=O)c(-c2ccc(Oc3ccccc3)cc2)n1 [Example 39]
9.2 nM	C=CC(=O)N1CC[C@]2(C1)C[C@H](n1nc(-c3ccc(OC(F)(F)F)cc3)c(C(N)=O)c1N)C2 [Example 162]
43 nM	C=CC(=O)N1CCC[C@@H](n2cc(C(N)=O)c(-c3ccc(Oc4ccc(Cl)c(Cl)c4)cc3)n2)C1 [Example 69]
29 nM	CC#CC(=O)N1CC[C@]2(C1)C[C@@H](n1nc(-c3ccc(C(F)(F)F)cc3)c(C(N)=O)c1N)C2 [Example 129]
0.89 nM	CC#CC(=O)N1CC[C@]2(C1)C[C@@H](n1nc(-c3ccc(Oc4ccccc4)cc3)c(C(N)=O)c1N)C2 [Example 92]
1.5 nM	C=CC(=O)N1CC[C@]2(C1)C[C@H](n1nc(-c3ccc(Oc4ccccn4)cc3)c(C(N)=O)c1N)C2 [Example 152]
14 nM	CC#CC(=O)N1CC2(CC(n3nc(-c4ccc(Cl)c(C(F)(F)F)c4)c(C(N)=O)c3N)C2)C1 [Example 136]
4.3 nM	CC#CC(=O)N1CCC2(CC1)CC(c1nc(-c3ccc(Oc4ccccc4)cc3)c(C(N)=O)[nH]1)C2 [Example 87]
10 nM	C=CC(=O)N1CCC(Cn2cc(C(N)=O)c(-c3ccc(Oc4ccccc4)cc3)n2)CC1 [Example 47]
2.8 nM	C=CC(=O)N1CC2(CC(n3nc(-c4ccc(Oc5ccccc5)cn4)c(C(N)=O)c3N)C2)C1 [Example 103]
7.6 nM	C=CC(=O)N1CCC[C@@H](n2cc(C(N)=O)c(-c3ccc(Oc4ccccc4)c(OC)c3)n2)C1 [Example 22]

Source: patent US10138229B2, “Heteroaromatic compounds as BTK inhibitors” (Boehringer Ingelheim International GmbH, priority 2012, dated 2018)
